Species on record: Rattus norvegicus
Test: DrugMatrix - Regimen: Daily Repeat
Assay type: toxicity, organism-based, Sprague-Dawley
Design: regimen Daily Repeat, gender Male, age 6-8 weeks
Conditions: in vivo, po, 60 mg/kg, route oral GAVAGE, dose level High, vehicle 100 % WATER; for ABSOLUTE BASOPHIL / ABSOLUTE EOSINOPHIL / ABSOLUTE LYMPHOCYTE / ABSOLUTE MONOCYTE / ABSOLUTE SEGMENTED NEUTROPHIL / BASOPHIL / EOSINOPHIL / ERYTHROCYTE COUNT / HEMATOCRIT / HEMOGLOBIN / LEUKOCYTE COUNT / LYMPHOCYTE / MEAN CORPUSCULAR HEMOGLOBIN / MEAN CORPUSCULAR HEMOGLOBIN CONCENTRATION / MEAN CORPUSCULAR VOLUME / MONOCYTE / NEUTROPHIL / NUCLEATED RED BLOOD CELLS / PLATELET COUNT: tissue Blood; for ALANINE AMINOTRANSFERASE / ALBUMIN / ALKALINE PHOSPHATASE / ASPARTATE AMINOTRANSFERASE / BLOOD UREA NITROGEN / CARBON DIOXIDE / CHLORIDE / CHOLESTEROL / CREATININE / GLUCOSE / LACTATE DEHYDROGENASE / LIPASE / PHOSPHORUS / POTASSIUM / SODIUM / TOTAL BILIRUBIN / TOTAL PROTEIN / URIC ACID: tissue Plasma

Nc1ccc(O)c(N)c1 [2,4-DIAMINOPHENOL]
ABSOLUTE BASOPHIL (120 h, time 5 day): 0 CELLS/uL
ABSOLUTE EOSINOPHIL (120 h, time 5 day): 0 CELLS/uL
ABSOLUTE LYMPHOCYTE (120 h, time 5 day): 5905 CELLS/uL
ABSOLUTE MONOCYTE (120 h, time 5 day): 88.67 CELLS/uL
ABSOLUTE SEGMENTED NEUTROPHIL (120 h, time 5 day): 839.67 CELLS/uL
BASOPHIL (120 h, time 5 day): 0%
EOSINOPHIL (120 h, time 5 day): 0%
ERYTHROCYTE COUNT (120 h, time 5 day): 5.11 x10E6/uL
HEMATOCRIT (120 h, time 5 day): 31.43%
HEMOGLOBIN (120 h, time 5 day): 11.77 G/DL
LEUKOCYTE COUNT (120 h, time 5 day): 6.83 x10E3/uL
LYMPHOCYTE (120 h, time 5 day): 86.33%
MEAN CORPUSCULAR HEMOGLOBIN (120 h, time 5 day): 23.1 pg
MEAN CORPUSCULAR HEMOGLOBIN CONCENTRATION (120 h, time 5 day): 37.43 G/DL
MEAN CORPUSCULAR VOLUME (120 h, time 5 day): 61.57 fL
MONOCYTE (120 h, time 5 day): 1.33%
NEUTROPHIL (120 h, time 5 day): 12.33%
NUCLEATED RED BLOOD CELLS (120 h, time 5 day): 0 /100WBC
PLATELET COUNT (120 h, time 5 day): 990.67 x10E3/uL
ALANINE AMINOTRANSFERASE (120 h, time 5 day): 50.33 u/L
ALBUMIN (120 h, time 5 day): 4.63 G/DL
ALKALINE PHOSPHATASE (120 h, time 5 day): 303.67 u/L
ASPARTATE AMINOTRANSFERASE (120 h, time 5 day): 73 u/L
BLOOD UREA NITROGEN (120 h, time 5 day): 12.67 mg/dL
CARBON DIOXIDE (120 h, time 5 day): 33 mmol/L
CHLORIDE (120 h, time 5 day): 99.67 MEQ/L
CHOLESTEROL (120 h, time 5 day): 71.67 mg/dL
CREATININE (120 h, time 5 day): 0.15 mg/dL
GLUCOSE (120 h, time 5 day): 135.33 mg/dL
LACTATE DEHYDROGENASE (120 h, time 5 day): 84.67 u/L
LIPASE (120 h, time 5 day): 8.67 u/L
PHOSPHORUS (120 h, time 5 day): 12.63 mg/dL
POTASSIUM (120 h, time 5 day): 6.25 MEQ/L
SODIUM (120 h, time 5 day): 146.5 MEQ/L
TOTAL BILIRUBIN (120 h, time 5 day): 0.23 mg/dL
TOTAL PROTEIN (120 h, time 5 day): 6.5 G/DL
URIC ACID (120 h, time 5 day): 0.67 mg/dL
ABSOLUTE BASOPHIL ([…], time 14 day): 0 CELLS/uL
ABSOLUTE EOSINOPHIL ([…], time 14 day): 124 CELLS/uL
ABSOLUTE LYMPHOCYTE ([…], time 14 day): 13347.2 CELLS/uL
ABSOLUTE MONOCYTE ([…], time 14 day): 291 CELLS/uL
ABSOLUTE SEGMENTED NEUTROPHIL ([…], time 14 day): 2297.8 CELLS/uL
BASOPHIL ([…], time 14 day): 0%
EOSINOPHIL ([…], time 14 day): 0.8%
ERYTHROCYTE COUNT ([…], time 14 day): 5.92 x10E6/uL
HEMATOCRIT ([…], time 14 day): 34.56%
HEMOGLOBIN ([…], time 14 day): 13 G/DL
LEUKOCYTE COUNT ([…], time 14 day): 16.06 x10E3/uL
LYMPHOCYTE ([…], time 14 day): 83%
MEAN CORPUSCULAR HEMOGLOBIN ([…], time 14 day): 22.04 pg
MEAN CORPUSCULAR HEMOGLOBIN CONCENTRATION ([…], time 14 day): 37.6 G/DL
MEAN CORPUSCULAR VOLUME ([…], time 14 day): 58.5 fL
MONOCYTE ([…], time 14 day): 1.8%
NEUTROPHIL ([…], time 14 day): 14.4%
NUCLEATED RED BLOOD CELLS ([…], time 14 day): 0 /100WBC
PLATELET COUNT ([…], time 14 day): 944.4 x10E3/uL
ALANINE AMINOTRANSFERASE ([…], time 14 day): 40.4 u/L
ALBUMIN ([…], time 14 day): 4.32 G/DL
ALKALINE PHOSPHATASE ([…], time 14 day): 271.4 u/L
ASPARTATE AMINOTRANSFERASE ([…], time 14 day): 76.6 u/L
BLOOD UREA NITROGEN ([…], time 14 day): 13.6 mg/dL
CARBON DIOXIDE ([…], time 14 day): 30.4 mmol/L
CHLORIDE ([…], time 14 day): 101.8 MEQ/L
CHOLESTEROL ([…], time 14 day): 67.4 mg/dL
CREATININE ([…], time 14 day): 0.15 mg/dL
GLUCOSE ([…], time 14 day): 150 mg/dL
LACTATE DEHYDROGENASE ([…], time 14 day): 271.8 u/L
LIPASE ([…], time 14 day): 7.8 u/L
PHOSPHORUS ([…], time 14 day): 13.62 mg/dL
POTASSIUM ([…], time 14 day): 6.71 MEQ/L
SODIUM ([…], time 14 day): 145.8 MEQ/L
TOTAL BILIRUBIN ([…], time 14 day): 0.14 mg/dL
TOTAL PROTEIN ([…], time 14 day): 6.06 G/DL
URIC ACID ([…], time 14 day): 1.14 mg/dL
